Experimental data taken from patent US10253300B2, “Adapted rhinovirus C” (Wisconsin Alumni Research Foundation, priority 2015, dated 2019).
“Also recorded” adds a separate entry of the source.

Experiments:
C15 K125 = assay: Inhibition of virus binding by preincubation with heparin or HS: C15 K125; format: cell-based, rhinovirus C; conditions: for inhibition of virus binding to HeLa-E8 cells: heparin or HS 1-2 mg/ml preincubation
Procedure: (§1) FIGS. 4A-4E—Heparin and heparan sulfate effects. (A) Virus samples (5×10^5 PFUe) were incubated with heparin (2 mg/ml) or medium alone (no heparin) for 30 min at 34° C., before inoculation of HeLa-E8 cells. After an attachment period (30 min at room temp, 30 min at 34° C.) the cells were washed (3×PBS), harvested and tested by RT-qPCR for the attached virus RNA signals (means±s.d., n≥3). (*) indicates p<0.05 significance (t-test). (B) C15a and C15 K125 (5×10^5 PFUe) were incubated with heparin or heparan sulfate (1 mg/ml) as in A, before HeLa-E8 infections and virus binding assays. (C) The C15a experiment in A was repeated using different doses of heparin in the preincubation. (D) HeLa-E8 cells (12 well-plates) were treated (37° C., 2 h) with the indicated dose (U) of heparinase I before inoculation with C15a virus (5×10^5 PFUe) and tested for virus binding as in A. (E) C15a and recombinant C15 K125/K41 viruses (5×10^5 PFUe) were incubated with heparin (1 mg/ml, 30 min, 34° C.) before inoculation of HeLa-E8 or HeLa-H1 cells. After an attachment period (30 min at room temp, 30 min at 34° C.), the cells were washed with PBS (3×). Cells were harvested and assayed for the attached virus (1 h p.i.) and progeny virus (24 h p.i.) RNA signals by RT-qPCR (means±s.d., n=3).
(§2) Purified virus (5×10^5 PFUe) was pre-incubated with tested compounds (sialic acid and sugar di- or trisaccharides, heparin or HS) for 30 min at 34° C. before inoculation of HeLa cell monolayers (30 min, room temp; 30 min, 34° C.). Cells were washed three times with PBS, lysed with the RLT buffer (Qiagen) and stored at −80° C. before total RNA extraction and RT-qPCR for C15. For SNA and MAUI samples, the cells, rather than virus were pretreated (100 μg/ml for 30 min, room temp) before the virus addition step. HeLa-E8 cells were washed with PBS containing 1 mM MgCl2 and 1 mM CaCl2 (PBS^++) and incubated for 2 hours at 37° C. with 2.5-10 U of heparinase I in PBS^++ before inoculation with purified virus (10^6 PFUe) for 1 hour at 34° C.

C15a [1] = assay: Inhibition of virus binding and replication by preincubation with heparin, HS or glycans: C15a; format: cell-based, rhinovirus C; conditions: for inhibition of virus binding to HeLa-E8 cells: heparin or HS 1-2 mg/ml preincubation
Procedure: as §1
FIGS. 9A-9B—Glycan effects on virus binding assays. (A) Recombinant C15 or (B) polyclonal C15a were incubated in media with the indicated sialylated glycans (1 mg/ml, see below) before being tested for binding to HeLa-E8 cells. Virus (5×10^5 PFUe) and glycan were mixed (30 min, 34° C.), then added to plated cells (30 min, room temp), before the samples were again incubated at 34° C. for an additional 30 min. The cells were washed (3×) before total RNA was extracted and assayed for C15 titer by RT-qPCR. For SNA and MALII samples, the cells, rather than virus were pretreated (100 μg/ml for 30 min, room temp) before the virus addition step. The plotted values are the averages of duplicate samples (n=2). Glycan reagents include: SLN 2-3 (3′-Sialy-N-acetyllactosamine, V-Labs, Inc), 1 mg/ml; SLN 2-6 (6′-Sialy-N-acetyllactosamine, V-Labs, Inc), 1 mg/ml; SLN 2-8 (Neu5Ac2-8Neu5Ac2-8Neu5Ac-sp-biotin, GlycoTech), 1 mg/ml; GlcNac 1-4 (GlcNAcb1-4GlcNAcb-sp-biotin, GlycoTech), 1 mg/ml; SNA (Sambucus Nigra Lectin, Vector Laboratories), 100 μg/ml; MAUI (Maackia Amurensis Lectin, Vector Laboratories), 100 μg/ml.
as §2

unadapted C15 virus = assay: Inhibition of virus binding by preincubation with heparin: unadapted C15; format: cell-based, rhinovirus C; conditions: heparin 2 mg/ml preincubation
Procedure: as §1, with “n=3). […]” for “n=3).”

A16 = assay: Inhibition of virus binding by preincubation with heparin: A16; format: cell-based, RV-A; conditions: heparin 2 mg/ml preincubation
Procedure: as §1, with “n=3). […]” for “n=3).”

recombinant C15 K125/K41 = assay: Inhibition of virus binding and replication by preincubation with heparin: recombinant C15 K125/K41; format: cell-based, rhinovirus C; conditions: heparin 1 mg/ml
Procedure: as §1, with “n=3). […]” for “n=3).”

Ala viruses = assay: Inhibition of virus binding by preincubation with heparin: Ala; format: cell-based; conditions: heparin 2 mg/ml preincubation
Procedure: as §1, with “n=3). […]” for “n=3).”

RV-C15-K125 = assay: Heparinase I treatment, virus binding to HeLa-E8: RV-C15-K125; format: cell-based, rhinovirus C
Procedure: as §2
Receptor specificity switch has been documented for some major receptor group RVs (e.g. RV-A89) that were adapted for growth in ICAM-1-deficient cells by serial or alternate passages in HEp-2 and HeLa cells (Reischl et al., 2001; Vlasak et al., 2005). A HEp-2-adapted RV-A89 variant can utilize HS proteoglycans as a cellular receptor (Vlasak et al., 2005). […] In contrast to RV-A89, RV-C15 adaptation by passaging in HeLa cells occurred in the absence of selective pressure for binding specificity change. This process has also been observed in some other picornaviruses and alphaviruses (Sa-Carvalho et al., 1997; Klimstra et al., 1998; Smit et al., 2002). […]

C15a [2] = assay: Heparinase I pretreatment of HeLa-E8 cells, virus binding: C15a; format: cell-based, rhinovirus C
Procedure: as §1, with “n=3). […]” for “n=3).”

[3] = heparin 2 mg/ml, 30 min 34° C. preincubation, 5×10^5 PFUe, HeLa-E8

Substance	inhibition of virus binding to HeLa-E8 cells (C15 K125)	inhibition of virus binding to HeLa-E8 cells (C15a [1])	reduction of binding titer by heparin (C15 K125; [3]) [fold]	effect of heparin on virus interaction with HeLa-E8 cells (unadapted C15 virus)	dose dependence of inhibition of binding (C15a [1]; different doses of heparin in the preincubation, HeLa-E8)	effect of heparin on binding and replication in HeLa-H1 cells (C15a [1]; heparin 1 mg/ml, 1 h and 24 h p.i.)	replication in HeLa-E8 cells despite the heparin treatment (C15a [1]; heparin 1 mg/ml, 24 h p.i.)	reduction of binding titer by heparin (C15a [1]; [3]) [fold]	effect of heparin on virus interaction with HeLa-E8 cells (A16)	effect of heparin on binding and replication in HeLa-H1 cells (recombinant C15 K125/K41; 1 h and 24 h p.i.)	replication in HeLa-E8 cells despite the heparin treatment (recombinant C15 K125/K41; 24 h p.i.)	effect of heparin on virus interaction with HeLa-E8 cells (Ala viruses)	inhibition of virus binding to HeLa-E8 cells (RV-C15-K125)	reduction of C15a binding after heparinase I pretreatment of HeLa-E8 cells (C15a [2]; 2.5-10 U heparinase I, 37° C., 2 h)	inhibition of virus binding to HeLa-E8 cells (C15a [2]; heparinase I treatment)
heparan sulfate [HS]	had this effect; also recorded: inhibited	had this effect; also recorded: inhibited													
heparin	inhibited	inhibited	44	not affected	dependent upon the dose	abolished	still replicated (to a degree)	17	not affected	abolished	still replicated (to a degree)	not affected			
heparinase I													inhibited	more than 7 fold	inhibited
